Measured values from patent publication US6462055B2, “Alpha-methylbenzyl-containing thiourea inhibitors of herpes viruses containing a phenylenediamine group” (Wyeth, priority 1998, dated 2002).
Converted amounts (≈) assume the structure as drawn.

Legend:
HSV-1 = assay: HSV Antiviral (ELISA) Assay in Vero cells; assay type: cell-based, herpes simplex virus type 1; details: HSV-1, Vero cells; for IC50: Human alphaherpesvirus 1, read-out: IC50 (ug/ml) HSV
How it was run: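 Viral replication was quantified by cell-fixed ELISA for HSV glycoprotein D, using a β-galactosidase reporter and fluorogenic umbelliferyl substrate, about 24 h after HSV-1 infection (MOI 0.006) of Vero cells. Compounds, at several concentrations, were added 30 min pre-infection. IC50 was derived from fluorescence relative to the compound-free signal.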

[1] = test system: HCMV recombinant mutant virus (RV145); assay: microbe, parasite or virus in culture; assay type: cell-based, human cytomegalovirus; details: for IC50: Human betaherpesvirus 5, read-out: IC50 ug/ml HCMV, HCMV
From the text: Microtiter plate assay. Ninety-six well plate cultures of human foreskin fibroblasts are infected in the presence of inhibitor compound with a HCMV recombinant mutant virus whose genome contains the prokaryotic beta-glucuronidase gene (Jefferson, R. A., S. M. Burgess, and D. Hirsh. 1986. Beta-glucuronidase from Escherichia coli as a gene fusion marker. Proc. Natl. Acad. Sci. USA 83:8447-8451) whose expression is controlled by a viral promoter. An example of such a virus is RV145 (Jones, T. R., V. P. Muzithras, and Y. Gluzman. 1991. Replacement mutagenesis of the human cytomegalovirus genome: US10 and US11 gene products are nonessential. J. Virol. 65:5860-5872). Since it is under the control of a viral promoter, beta-glucuronidase expression is an indirect indicator of growth and replication of HCMV in this assay. At 96 hours post-infection, the infected cell lysates are prepared (using 50 mM sodium phosphate [pH7.0]containing 0.1% Triton X-100 and 0.1% sarkosyl) and assayed for beta-glucuronidase activity using a substrate for the enzyme which when cleaved yields either a product which can be measured […] in a spectrophotometer or fluorescently in a microfluorimeter. Examples of such substrates are p-nitrophenyl-beta-D-glucuronide and methylumbelliferylglucuronide, respectively. The presence of an antiviral compound is indicated by the reduced expression of the HCMV genome resident beta-glucuronidase gene, compared to the absence of inhibitor. […] Data from this assay generated using varying amounts of inhibitor compound is also used to estimate the IC50 of an inhibitor compound.

VZV strain Ellen = assay: VZV Antiviral (ELISA) Assay in human foreskin fibroblast cells; assay type: cell-based, varicella-zoster virus; details: for IC50 / inhibition at 10 µg/mL: Human alphaherpesvirus 3, Fibroblast; for IC50: read-out: IC50 (ug/ml) VZV; for inhibition at 10 µg/mL: read-out: % inhibition 10 ug/ml VZV, 10 ug/ml
How it was run: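 First, fibroblasts are infected at multiplicity below 0.1 and kept overnight. The harvested cell mixture then goes onto compound-containing wells for three days at 37° C. Finally, cells are fixed and viral gpII is measured by fluorogenic ELISA.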

SMILES	IC50 (ug/ml) HSV (HSV-1) [µg/mL]	IC50 ug/ml HCMV [1] [µg/mL]	IC50 (ug/ml) VZV (VZV strain Ellen) [µg/mL]	IC50 [1] [µg/mL]	also measured
CN(C)c1cc(Cl)cc(NC(=S)Nc2ccc(NC(=O)c3ccccc3F)cc2)c1 [Example 523]	0.6 (≈ 1.35 µM)	3.2 (≈ 7.22 µM)	4 (≈ 9.03 µM)	–	% inhibition 10 ug/ml VZV (VZV strain Ellen): 75%
CN(c1ccc(NC(=S)Nc2ccc(NC(=O)c3ccccc3F)cc2)cc1Cl)C1CCCCC1 [Example 238]	>10	>10	>10	–	% inhibition 10 ug/ml VZV (VZV strain Ellen): 38%
CC(NC(=S)Nc1ccc(NC(=O)c2cc3ccccc3o2)cc1)c1cc2ccccc2o1 (stereo not shown) [Example 981, Benzofuran-2-carboxylic acid {4-[3-(1-benzofuran-2-yl-ethyl)-thioureido]-phenyl}-amide]	–	–	–	> 10	IC50 (HSV-1): > 10 µg/mL; IC50 (VZV strain Ellen): 0.2 µg/mL (≈ 0.439 µM)
O=C(Nc1ccc(NC(=S)Nc2ccc(Cl)c(C(F)(F)F)c2)cc1)c1c(F)cccc1F [Example 380]	>10	>10	>10	–	% inhibition 10 ug/ml VZV (VZV strain Ellen): 50%
CCN(CC)CC(=O)Nc1ccc(NC(=S)Nc2ccc(NC(=O)c3ccccc3F)cc2)cc1Cl [Example 414]	6 (≈ 11.4 µM)	>10	>15	–	% inhibition 10 ug/ml VZV (VZV strain Ellen): 70%
O=C(O)c1cccc(NC(=S)Nc2ccc(NC(=O)c3ccco3)cc2)c1 [Example 964, 3-(3-{4-[(Furan-2-carbonyl)-amino]-phenyl}-thioureido)-benzoic acid]	–	–	–	> 10	IC50 (HSV-1): > 10 µg/mL; inhibition at 10 µg/mL (VZV strain Ellen): 0%; IC50 (VZV strain Ellen): > 10 µg/mL
Cc1ccc(NC(=S)Nc2ccc(NC(=O)c3c(F)cccc3F)cc2)cc1Cl [Example 235]	0.2 (≈ 0.463 µM)	>10	>10	–	% inhibition 10 ug/ml VZV (VZV strain Ellen): 50%
CN(C)CC(=O)Nc1ccc(NC(=S)Nc2ccc(NC(=O)c3ccccc3F)cc2)cc1Cl [Example 362]	>10	>10	>10	–	% inhibition 10 ug/ml VZV (VZV strain Ellen): 8%
CC(NC(=S)Nc1ccc(NC(=O)c2ccccc2F)cc1)c1ccc(F)cc1 (stereo not shown) [Example 591]	–	–	–	7 (≈ 17 µM)	IC50 (HSV-1): > 10 µg/mL; IC50 (VZV strain Ellen): 1.5 µg/mL (≈ 3.65 µM)
O=C(Nc1ccc(NC(=S)Nc2ccc(Cl)cc2)cc1)c1ccccc1F [Example 946, N-{4-[3-(4-Chloro-phenyl)-thioureido]-phenyl}-2-fluoro-benzamide]	–	–	–	> 10	IC50 (HSV-1): > 10 µg/mL
CCC(NC(=S)Nc1ccc(NC(=O)c2ccccc2F)cc1)c1ccc(F)cc1 (stereo not shown) [Example 771]	>10	0.4 (≈ 0.94 µM)	–	–	–
O=C(Nc1ccc(NC(=S)NCCSc2cccc(Br)c2)cc1)c1ccccc1F [Example 680]	>10	>0.5	–	–	–
O=C(Nc1ccc(NC(=S)NCc2ccc(F)c(Cl)c2)cc1)c1ccccc1F [Example 677]	>10	>0.5	–	–	–
CN(C)c1cc(CCNC(=S)Nc2ccc(NC(=O)c3ccccc3F)cc2)cc(C(F)(F)F)c1 [Example 653]	>10	>0.5	–	–	–
O=C(Nc1ccc(NC(=S)Nc2cccc(CO)c2)cc1)c1ccccc1F [Example 476]	–	>10	>10	–	% inhibition 10 ug/ml VZV (VZV strain Ellen): 21%
CN1CCN(c2cc(NC(=S)Nc3ccc(NC(=O)c4ccccc4F)cc3)cc(C(F)(F)F)c2)CC1 [Example 569]	–	>0.5	3 (≈ 5.64 µM)	–	–
COc1ccc(C(=O)Nc2ccc(NC(=S)Nc3cc(Br)c(OC)cc3OC)cc2)cc1 [Example 830, N-{4-[3-(5-Bromo-2,4-dimethoxy-phenyl)-thioureido]-phenyl}-4-methoxy-benzamide]	–	–	–	> 10	inhibition at 10 µg/mL (VZV strain Ellen): 16%; IC50 (VZV strain Ellen): > 10 µg/mL
O=C(Nc1ccc(NC(=S)Nc2ccc(Br)c(Cl)c2)cc1)c1ccccc1F [Example 915, N-{4-[3-(4-Bromo-3-chloro-phenyl)-thioureido]-phenyl}-2-fluoro-benzamide]	–	–	–	> 10	inhibition at 10 µg/mL (VZV strain Ellen): 29%; IC50 (VZV strain Ellen): > 10 µg/mL

SMILES	IC50 (ug/ml) HSV (HSV-1) [µg/mL]	IC50 ug/ml HCMV [1] [µg/mL]	IC50 (ug/ml) VZV (VZV strain Ellen) [µg/mL]	IC50 [1] [µg/mL]	also measured
O=C(Nc1ccc(NC(=S)NCCOc2ccc(I)cc2)cc1)c1ccccc1F [Example 696]	–	–	–	> 3	IC50 (HSV-1): 10 µg/mL (≈ 18.7 µM)
CC1CN(c2ccc(CNC(=S)Nc3ccc(NC(=O)c4ccccc4F)cc3)cc2C(F)(F)F)CCN1 (stereo not shown) [Example 687]	1.2 (≈ 2.2 µM)	>0.5	–	–	–
CC(NC(=S)Nc1ccc(NC(=O)c2ccccc2F)cc1)c1ccc(Br)cc1 (stereo not shown) [Example 1102]	–	1.7 (≈ 3.6 µM)	0.2 (≈ 0.423 µM)	–	–
Cc1cc(CCNC(=S)Nc2ccc(NC(=O)c3ccccc3F)cc2)ccc1N(C)C [Example 673]	7 (≈ 15.5 µM)	>0.5	–	–	–
O=C(Nc1ccc(NC(=S)NCCc2ccc(Cl)c(Cl)c2)cc1)c1ccccc1F [Example 719]	>10	>0.5	–	–	–
O=C(Nc1ccc(NC(=S)NCCOc2ccc(Br)cc2)cc1)c1ccccc1F [Example 695]	>10	>3	–	–	–
O=C(Nc1ccc(NC(=S)NC(c2ccccc2)c2ccc(F)cc2)cc1)c1ccccc1F (stereo not shown) [Example 772]	>10	0.35 (≈ 0.739 µM)	–	–	–
O=C(Nc1ccc(NC(=S)NCCSc2ccccc2)cc1)c1ccccc1F [Example 656]	5 (≈ 11.7 µM)	>0.5	–	–	–
COc1ccccc1C(=O)Nc1ccc(NC(=S)NC(C)c2ccc(F)cc2)cc1 (stereo not shown) [Example 752]	>10	>0.5	–	–	–
Nc1ccc(F)cc1NC(=S)Nc1ccc(NC(=O)c2ccccc2F)cc1 [Example 1007, N-{4-[3-(2-Amino-5-fluoro-phenyl)-thioureido]-phenyl}-2-fluoro-benzamide]	–	–	–	> 10	IC50 (VZV strain Ellen): > 10 µg/mL
COC(=O)c1cccc(C(=O)Nc2ccc(NC(=S)Nc3cc(Cl)c(OC)cc3OC)cc2)c1 [Example 208]	–	>10	>10	–	% inhibition 10 ug/ml VZV (VZV strain Ellen): 25%
O=C(Nc1ccc(NC(=S)NCc2cc(C(F)(F)F)ccc2F)cc1)c1ccccc1F [Example 669]	–	–	–	> 0.5	IC50 (HSV-1): > 10 µg/mL
C[C@H](NC(=S)Nc1ccc(NC(=O)c2nccc3ccccc23)cc1)c1ccc(Br)cc1 [Example 1107]	–	8.1 (≈ 16 µM)	0.05 (≈ 0.0989 µM)	–	–
O=C(Nc1ccc(NC(=S)NCCc2ccccc2)cc1)c1ccccc1F [Example 576]	–	–	–	> 0.5	IC50 (VZV strain Ellen): 8 µg/mL (≈ 20.3 µM)
O=C(Nc1ccc(NC(=S)NCc2cccc(I)c2)cc1)c1ccccc1F [Example 661]	–	–	–	> 0.5	IC50 (HSV-1): > 10 µg/mL
O=C(Nc1ccc(NC(=S)NCc2ccc(F)c(F)c2)cc1)c1ccccc1F [Example 672]	–	–	–	> 0.5	IC50 (HSV-1): > 10 µg/mL
O=C(Nc1ccc(NC(=S)Nc2cccc(S(=O)(=O)CCO)c2)cc1)c1ccccc1F [Example 969, 2-Fluoro-N-(4-{3-[3-(2-hydroxy-ethanesulfonyl)-phenyl]-thioureido}-phenyl)-benzamide]	–	–	–	> 10	inhibition at 10 µg/mL (VZV strain Ellen): 19%; IC50 (VZV strain Ellen): > 10 µg/mL
